From PMC10761396, “Evaluation of new alternative methods for the identification of estrogenic, androgenic and steroidogenic effects: a comparative in vitro/in silico study” (Archives of Toxicology, 2023)
“Also recorded” adds a separate entry of the source. Like-named read-outs stand apart in the source and are kept apart here.

Columns and labels:
AR = assay: ToxCast AR assays and final ToxCast call; conditions: for Final "true" call (ToxCast): AR effects, from active assays, cytotoxicity and pathway model; for ToxCast result: AR overall call from Supplementary Table 4; for Final "true" call (ToxCast) AR: from ToxCast assays and ToxCast Pathway Model
From the text: (§1) A rich source of data can be found in the EPA's ToxCast database (US EPA). This contains ED data for ~ 1800 chemicals in more than 700 high-throughput assay endpoints that cover a range of high-level cell responses. The US EPA is running an Endocrine Disruption Screening Program (EDSP), with the aim of prioritising chemicals using high-throughput screening methods and computational toxicology approaches to evaluate thousands of chemicals for ED activities. The OECD framework for ED assessment (OECD [2018]) requires animal testing at higher levels, where relevant in vitro alternatives are missing e.g. for developmental, reproductive, neurological and immune effects. However, such follow-up testing is not possible for the cosmetics industry especially in the EU due to the complete animal testing ban which came into force in March 2013 (EU [2009]). Even for other industries, animal models are not suitable for assessing ED effects due to issues relating to ethics, capacity, speed and relevance (Patisaul et al. [2018]). Therefore, chemicals which cannot be evaluated using in vivo method must be assessed using alternative methods e.g. in silico and in vitro methods listed in Levels 1 and 2 of the framework described in the OECD 150 test guideline (OECD [2018]).
(§2) The performance of different in silico models for ED effects tends to be evaluated on single model for a single effect, such as ER or AR binding, agonism or antagonism (normally by the developer), or a limited number of models using multiple chemicals (Weyrich et al. [2022]). Multi-organisation collaborations have also evaluated multiple models for a specific effect e.g. ER (Mansouri et al. [2016]) and AR (Mansouri et al. [2020]) effects. Therefore, we have conducted a side-by-side comparison of multiple different in silico models covering three pathways in ED, namely ER, AR and aromatase inhibition and compared these with ToxCast-derived final calls, as well as with results from in vitro assays. The efficiency of the in silico models was evaluated as a metric for the ability of the in silico model to generate concrete predictions. […] In vivo data were available for some but not all chemicals; therefore, an evaluation of the performance of the methods was made by comparing the derived overall calls from in silico models with those from the ToxCast database. The final call for each chemical evaluated in the ToxCast assays was made by considering the active-flagged assays and the corresponding cytotoxicity levels, the ToxCast Pathway Model (Browne et al. [2015]) and the CERAPP Potency Level (Mansouri et al. [2016]) for ER effects and the ToxCast Pathway Model (Kleinstreuer et al. [2017]) for AR effects (see Online Resource 1 Supplementary Tables 2, 4 and 6 for the outcome of the ER, AR and aromatase ToxCast assays, additional literature and final calls for each chemical and target).

ER [1] = assay: ToxCast ER assays and final ToxCast call; conditions: for Final "true" call (ToxCast) ER: from active ToxCast assays, cytotoxicity, ToxCast Pathway Model and CERAPP Potency Level; for ToxCast result (ER): overall call from ToxCast data (Supplementary Table 2)
From the text: as §1, §2

aromatase [2] = assay: ToxCast aromatase assays (TOX21_Aromatase_Inhibition) and final ToxCast call; type: cell-based; conditions: for Final "true" call (ToxCast) Aromatase inhibition: from ToxCast assays; for ToxCast result: aromatase overall ToxCast call
From the text: as §2
Aromatase represents only one enzyme involved in steroidogenesis (the conversion of androgens to oestrogens); therefore, the aromatase assay detects effects on 17β-oestradiol production only. […] It is a cell-based assay in which MCF-7 cells are incubated with the test chemical for 24 h before measuring aromatase activities indirectly via a luciferase-based reporter endpoint which is dependent on the binding of the oestradiol–ER complex to the oestrogen response element. A decrease in luciferase activity can occur as a result of direct inhibition of aromatase (preventing the production of oestradiol) or by preventing oestradiol from binding to the ER and thus the binding to the oestrogen RE which initiates the production of luciferase (Lui et al. [2008]).

aromatase [3] = tested on: aromatase; set-up: method as in US EPA ToxCast; conditions: ref US EPA ToxCast, cited from earlier work; for ToxCast (assays Comments), efficacy: borderline: less than 50% efficacy
ER [4] = tested on: ER; set-up: method as in Mansouri et al. 2016; conditions: ref Mansouri et al. 2016; cited from earlier work

SMILES | Final "true" call (ToxCast) (AR) | ToxCast result (AR) | Final "true" call (ToxCast) AR (AR) | Final "true" call (ToxCast) ER (ER [1]) | ToxCast result (ER) (ER [1]) | Final "true" call (ToxCast) Aromatase inhibition (aromatase [2]) | ToxCast (assays Comments), efficacy (aromatase [3]) | ToxCast (assays Comments), efficacy (aromatase [3]; listed as 4-tert-Octylphenol) | ToxCast (Aromatase assays), assay listed as active (aromatase [3]; each listed assay name = active assay) | ToxCast (Aromatase assays), positive/total (aromatase [3]) | CERAPP Potency Level (ER [4]) | ToxCast result (aromatase [2])
CC(C)(C)CC(C)(C)c1ccc(O)cc1 [4-TO, 4-tert-octylphenol] | Positive for antagonism | AR antagonist only | Positive for antagonism | Positive for agonism | ER agonist only | Inconclusive | 31.35% | Boarderline: less than 50% efficacy (31.35%) | TOX21_Aromatase_Inhibition; also recorded: TOX21_Aromatase_Inhibition_viability | 2/2 positive | Weak agonist & strong antagonist | 
CCCCN(CCCC)c1ccc(C(=O)c2ccccc2C(=O)O)c(O)c1 [DBABA, 2-[4-(dibutylamino)-2-hydroxybenzoyl]benzoic acid] | Negative | Negative | Negative | Inconclusive |  | Negative |  |  |  | 0/2 positive | Negative | Negative
O=c1c(-c2ccc(O)cc2)coc2cc(O)ccc12 [Daidzein, daidzein] | Inconclusive |  |  | Positive for agonism and antagonism | ER agonist and antagonist | Negative |  |  |  | 0/2 positive | Weak agonist & strong antagonist | Negative
C[C@]12CCC(=O)C[C@@H]1CC[C@@H]1[C@@H]2CC[C@@]2(C)[C@H]1CC[C@]2(C)O [Mestanolone, mestanolone, reference compound] | Positive for agonism | AR agonist only | Positive for agonism | Positive for agonism and antagonism | ER agonist and antagonist | Negative |  |  |  | 0/2 positive | Weak agonist & strong antagonist | Negative
